Data as given in publication PMC5773577, “Novel Miniature Membrane Active Lipopeptidomimetics against Planktonic and Biofilm Embedded Methicillin-Resistant Staphylococcus aureus” (Scientific Reports, 2018).
≈ marks a conversion by molar mass, not a printed value. Residues, ends and D or L forms follow the SMILES beside them.

Columns and labels:
S. aureus (ATCC 29213) = assay: microbe, parasite or virus in culture; type: cell-based, Staphylococcus aureus; details: MHB, 2–5 × 10^5 CFU/mL, 16–18 h, 37 °C, OD600, duplicate, at least three days
Procedure: (§1) The antibacterial activity was evaluated as MIC using slight modifications to a serial broth micro dilution method as reported previously[66],[67]. Briefly, to each treatment well of the 96-well plate (Corning Incorporated, USA) 10 μL of peptidomimetic/antibiotic was added and subsequently diluted serial 2-fold in 0.2% BSA (in 0.01% acetic acid). Then to each well of the first 11 columns 100 μL of mid-log phase bacterial suspension in MHB medium was added to get 2–5 × 10^5 CFU/mL. Cultures without test peptidomimetics/antibiotics were used as growth control. Uninoculated MHB medium was used as negative control. The microtitre plates were incubated overnight with agitation (180 rpm) at 37 °C. After 16–18 h incubation, absorbance was read at 600 nm using an ELISA plate reader (Molecular Devices, Sunnyvale, CA, USA). The experiments were carried out in duplicate on at least three different days.

S. aureus (ISP479C) = assay: microbe, parasite or virus in culture; type: cell-based, Staphylococcus aureus; details: MHB, 2–5 × 10^5 CFU/mL, 16–18 h, 37 °C, OD600
Procedure: as §1

MRSA (ATCC 33591) = assay: microbe, parasite or virus in culture; type: cell-based, Staphylococcus aureus; details: MHB, 2–5 × 10^5 CFU/mL, 16–18 h, 37 °C, OD600
Procedure: as §1

MRSA (ATCC 43300) = assay: microbe, parasite or virus in culture; type: cell-based, Staphylococcus aureus; details: MHB, 2–5 × 10^5 CFU/mL, 16–18 h, 37 °C, OD600
Procedure: as §1

[1] = test system: Escherichia coli (ATCC 11775); type: cell-based
Procedure: as §1

[2] = test system: Methicillin-resistant S. epidermidis (ATCC 35984); assay: microbe, parasite or virus in culture; type: cell-based, Staphylococcus epidermidis; details: MRSE ATCC 35984; MHB, 2–5 × 10^5 CFU/mL, 16–18 h, 37 °C, OD600
Procedure: as §1

[3] = test system: 3T3 murine fibroblast cell line; assay: Cytotoxicity, MTT assay; type: cell-based; details: 3T3 fibroblasts, 2 h, DMEM with 10% FBS, mean ± S.D., triplicate on two days
Procedure: For the active peptidomimetics cytotoxicity was measured against 3T3 murine fibroblast cell line using a previously defined MTT assay with slight modifications. Briefly, the cells were grown to over 75% confluence in DMEM supplemented with 10% FBS and antibiotics (1 × Anti-anti) at 37 °C in 5% CO2 atmosphere. The cells were transferred to a 24-well plate to a final count of ~8 × 10^4 cells/well. […] The plates were kept for 2 h at 37 °C in 5% CO2 incubator. After 2 h, the cells were washed once with 1 mL PBS. Then 1 mL MTT (0.1 mg/mL) was added to each well in dark and incubated for 2 h at 37 °C in 5% CO2. After 2 h, 200 μL of DMSO was added to the wells to dissolve the formazan crystals formed and the plates were kept for 5 min in the incubator at 37 °C. 100 μL of the suspension was transferred to a fresh 96-well plate and absorbance (Asample) was measured at 570 nm in an ELISA plate reader (Molecular Devices, Sunnyvale, CA, USA). The wells with DMSO treatment were set as untreated control (Auntreated control). The assay was done in triplicate on two different days. The % survival was calculated using the following equation:2 %survival=[Asample/Auntreatedcontrol]×100

MRSA ATCC 33591 = assay: microbe, parasite or virus in culture; type: cell-based, Staphylococcus aureus
Procedure: An initial inoculum of mid-log phase 10^7 CFU/mL was used and MIC experiment was performed as described earlier. For serum/plasma stability assay a method as described previously was used with slight modifications. Briefly, 50 μL MHB medium containing desired concentration of test peptidomimetics was incubated with 50 µL mice plasma/fetal bovine serum for 3 h at 37 °C. After incubation, a 10 μL aliquot was taken out for MIC determination as described above. For the experiment, mid-log phase 2–5 × 10^5 CFU/mL were used as initial inoculum. For the growth control wells, an equivalent amount of plasma/FBS in the medium was also added to evaluate their effect on the viability of cells. A slight decrease in OD600 of cells incubated with mice plasma was observed compared to untreated growth control in MHB alone. The experiments were repeated on two different days and reproducible MIC values were observed.

[4] = test system: E. faecium (E-447), clinical isolate of vancomycin-resistant E. faecium; assay: organism not typed; type: cell-based, Enterococcus faecium; details: VRE clinical isolate E-447; MHB, 2–5 × 10^5 CFU/mL, 16–18 h, 37 °C
Procedure: as §1

[5] = test system: E. faecium (E-7846), clinical isolate of vancomycin-resistant E. faecium; assay: organism not typed; type: cell-based, Enterococcus faecium; details: VRE clinical isolate E-7846; MHB, 2–5 × 10^5 CFU/mL, 16–18 h, 37 °C
Procedure: as §1

S. aureus (ISP479R) = type: cell-based, Staphylococcus aureus; details: MHB, 2–5 × 10^5 CFU/mL, 16–18 h, 37 °C, OD600
Procedure: as §1

[6] = test system: mouse red blood cells (RBCs); assay: Hemolysis assay; type: cell-based; details: mouse RBC, up to 250 μg/mL, 1 h, 37 °C, PBS pH 7.4; 0.1% Triton X-100 = 100%; data not shown
Procedure: For the experiment, a previously defined procedure was used with slight modifications[67],[68]. Briefly, blood was withdrawn from mice on the day of the experiment. After washing red blood cells (RBC) twice with phosphate buffer saline (PBS: 35 mM sodium phosphate, 150 mM NaCl, pH 7.4), a 4% v/v suspension of RBC was prepared in the same buffer. In a 96-well plate, serial two-fold dilutions of desired concentrations of peptidomimetics (in PBS) were prepared (100 μL) in duplicate. To each well 100 μL of 4% v/v RBC suspension was added. The plates were incubated at 37 °C for 1 h. After 1 h, the plates were centrifuged at 1500 rpm for 10 min and 20 μL of the supernatant was transferred to a fresh 96-well plate containing 80 μL PBS. The hemoglobin release was quantified by measuring OD414 in an ELISA plate reader (Molecular Devices, Sunnyvale, CA, USA). Hemoglobin release from 0.1% Triton X-100 treated RBC was set as 100% lysis (Amax) while as negative control RBC suspended in PBS alone was used (APBS). Percentage hemolysis was calculated using the following equation:1 %hemolysis=[(Asample−APBS)/(Amax−APBS)]×100

[7] = MRSA ATCC 33591, initial inoculum 10^7 CFU/mL, mid-log phase

Row | SMILES | Minimum inhibitory concentration, MIC (S. aureus (ATCC 29213)) | Minimum inhibitory concentration, MIC (S. aureus (ISP479C)) | Minimum inhibitory concentration, MIC (MRSA (ATCC 33591)) | Minimum inhibitory concentration, MIC (MRSA (ATCC 43300)) | MIC [1] | Minimum inhibitory concentration, MIC [2] | % viable cells relative to untreated control (MTT) ([3]; 10× MIC) | % viable cells relative to untreated control (MTT) ([3]; 20 × MIC) | Minimum inhibitory concentration, MIC (MRSA ATCC 33591; ATCC 33591, 3 h) | Minimum inhibitory concentration, MIC (MRSA ATCC 33591; [7]) | Minimum inhibitory concentration, MIC [4] | Minimum inhibitory concentration, MIC [5] | Minimum inhibitory concentration, MIC (S. aureus (ISP479R)) | % hemolysis [6] | Minimum inhibitory concentration, MIC (MRSA ATCC 33591; MRSA ATCC 33591, after 3 h pre-incubation at 37 °C with mice plasma (50%, v/v), inoculum 2–5 × 10^5 CFU/mL, repeated on two days)
1 | N=C(N)NCCC[C@H](NC(=O)CCCCCCCCCCCNC(=O)[C@H](CCCNC(=N)N)NC(=O)[C@@H](N)Cc1c[nH]c2ccccc12)C(=O)N[C@@H](Cc1c[nH]c2ccccc12)C(N)=O [S-6, Trp-Arg-(12-ADO)-Arg-Trp-CONH2] (HELM PEPTIDE1{W.R.[O=C(CCCCCCCCCCCN[*:1])[*:2]].R.W.[am]}$$$$V2.0) | 11.3 µg/mL (≈ 12.6 µM) | 11.3 µg/mL (≈ 12.6 µM) | 11.3 µg/mL (≈ 12.6 µM) | 11.3 µg/mL (≈ 12.6 µM) | > 45.4 µg/mL | 11.3 µg/mL (≈ 12.6 µM) | no decrease in cell viability | no decrease in cell viability | 22.7 µg/mL (≈ 25.2 µM) | 11.3 µg/mL (≈ 12.6 µM) | 11.3 µg/mL (≈ 12.6 µM) | 11.3 µg/mL (≈ 12.6 µM) | 11.3 µg/mL (≈ 12.6 µM) | – | –
2 | N=C(N)NCCC[C@H](NC(=O)[C@@H](N)Cc1c[nH]c2ccccc12)C(=O)N[C@H](Cc1cccc2ccccc12)C(=O)N[C@@H](CCCNC(=N)N)C(=O)N[C@@H](Cc1c[nH]c2ccccc12)C(N)=O [S-3, Trp-Arg-(D-1-Nal)-Arg-Trp-CONH2] (HELM PEPTIDE1{W.R.[O=C([C@@H](Cc1cccc2ccccc12)N[*:1])[*:2]].R.W.[am]}$$$$V2.0) | – | – | – | – | – | – | – | – | – | – | – | – | – | < 5% | –
3 | N=C(N)NCCC[C@H](NC(=O)[C@H](Cc1c[nH]c2ccccc12)NC(=O)CCCCCCCCCCCNC(=O)[C@H](Cc1c[nH]c2ccccc12)NC(=O)[C@@H](N)CCCNC(=N)N)C(N)=O [S-7, Arg-Trp-(12-ADO)-Trp-Arg-CONH2] (HELM PEPTIDE1{R.W.[O=C(CCCCCCCCCCCN[*:1])[*:2]].W.R.[am]}$$$$V2.0) | 11.3 µg/mL (≈ 12.6 µM) | 11.3 µg/mL (≈ 12.6 µM) | 11.3 µg/mL (≈ 12.6 µM) | 11.3 µg/mL (≈ 12.6 µM) | > 45.4 µg/mL | 11.3 µg/mL (≈ 12.6 µM) | no decrease in cell viability | no decrease in cell viability | 22.7 µg/mL (≈ 25.2 µM) | 11.3 µg/mL (≈ 12.6 µM) | 11.3 µg/mL (≈ 12.6 µM) | 5.6 µg/mL (≈ 6.23 µM) | 11.3 µg/mL (≈ 12.6 µM) | – | >45.4 µg/mL
4 | N=C(N)NCCC[C@H](NC(=O)[C@@H](N)Cc1c[nH]c2ccccc12)C(=O)N[C@H](Cc1ccccc1C(F)(F)F)C(=O)N[C@@H](CCCNC(=N)N)C(=O)N[C@@H](Cc1c[nH]c2ccccc12)C(N)=O [S-2, Trp-Arg-(2-trifluoromethyl-D-Phe)-Arg-Trp-CONH2] (HELM PEPTIDE1{W.R.[O=C([C@@H](Cc1ccccc1C(F)(F)F)N[*:1])[*:2]].R.W.[am]}$$$$V2.0) | – | – | – | – | – | – | – | – | – | – | – | – | – | < 5% | –
